In one assay the target is T1, human Grb2 SH2 domain (Homo sapiens, UniProt P62993).
T1 construct: SH2 domain of human Grb2 (amino acids 58-159); made in house; host or cells: E. coli (pGEX-2T)
The assay can be described thus: SH2 domain / pY peptide binding assay (ELISA-based, 96 well plate), Grb2 SH2. The conditions noted are these: for Ki: Ki calculated from IC50 by the expanded equation, Table II; for IC50: cloned human SH2 domain fusion protein, 0.1 uM biotinylated pY peptide, Table I. How it is done:
(§1) The inhibitory activity of compounds at the different human SH2 domains was determined in vitro using SH2 domains expressed as fusion proteins in E. coli. The SH2 domains used herein were the human forms of the src SH2 domain, Grb2 SH2 domain, lck SH2 domain, fyn SH2 domain, SH-PTP2 SH2 domain, p85 SH2 domain and hcp SH2 domain.
(§2) Fusion proteins having the structure GST-X-SH2 were prepared as described in the GST gene fusion kit system available from Pharmacia (New Jersey). GST is the tagging sequence glutathione s-transferase epitope (SEQ ID NO: 8) for fyn, Grb2 and SH-PTP2 and is the tagging sequence glutathione s-transferase epitope (SEQ ID NO: 9) for p85. SH2 refers to the SH2 domains of fyn, Grb2, p85 and SH-PTP2 which were expressed and purified using glutathione Sepharose 4B (Pharmacia) according to "Current Protocols in Molecular Biology", ed. FM Ausubel et al., pub. John Wiley and Sons, Inc., (1995), p 16.7.1. X is an appropriate linker, preferably of 6 to 21 base pairs, used to keep the SH2 construct in frame and complement cloning. As such, the sequence of X is not critical. One skilled in the art can readily construct the appropriate linker. The DNA sequence encoding each GST-X-SH2 fusion protein was designed such that the indicated restriction sites (BamH1 and EcoRI) flank the SH2 region. The vector used in the instant experiments was the E. coli expression vector pGEX-2T (Pharmacia) for fyn, Grb2 and SH-PTP2, and pGEX-3X (Pharmacia) for p85. Each of these vectors result in SH2 constructs having additional C-terminal amino acids as described below.
Human Grb2 SH2 domain: The sequence encoding the SH2 domain of human Grb2 (amino acids 58-159) (Lowenstein, E. et al., Cell 70, 431-442 (1992)) was cloned into the BamHI and EcoRI sites of the expression vector pGEX-2T. The SH2 domain including the additional C-terminal amino acids isoleucine-histidine-arginine-aspartate (SEQ ID NO: 25) was cloned by PCR techniques known to those skilled in the art to yield the expressed fusion protein GST-X-Grb2.
(§3) The binding assays for the SH2 domains and pY peptides were performed in an ELISA-based 96 well plate assay. In Millipore 96 well filter plates, hydrophilic Durapore® (pore size 0.65um Cat. No. MADVN6550), was added 2 ul (50% suspension) of Protein-G Sepharose (available from Pharmacia of N.J. Cat. No. 17-0618-01) and either 2 ul of 2 mg/ml of MAB178. (for gp120/SH2 domain fusion proteins src, lck and hcp) or 0.25 ul of anti-GST polyclonal antisera (available from Pharmacia of N.J.) (for GST/SH2 domain fusion proteins fyn, Grb2, p85 and SH-PTP2). 10 pmol of the subject SH2 domain fusion protein were added to their respective wells. The volume was brought to 100 ul with TBS-T (tris buffered saline plus 0.05% tween-20), incubated and shaken at room trmperature for 1 hr. then washed 1x with TBS-T (4°C). 90 ul of TBS-T were then added to each well. Specific pY biotinylated peptides were diluted to a concentration of 1.0 uM in TBS-T (these peptides can be obtained from Bachem Bioscience of Pennsylvania, Genosys Biotechnologies of Texas and California Peptide Research of California). 10 ul was aliquoted per well to yield a final concentration of 0.1 uM (approx, the Kd for each SH2 domain/peptide pair) and a final volume of 100 ul. The assay plates were incubated until equilibrium binding was attained (3 hr at 4°C with shaking). The assay plates were washed 2 X per well TBS-T (4°C), then 100 ul of SABC (Strepavidin biotinylated horseradish peroxidase complex, available from the Zymed corporation of California cat. no. 93-0043, 1 drop reagent A (streptavidin) and 1 drop of reagent B (AH-biotin conjugated-horseradish peroxidase) per 10 ml of TBS-T, incubated at 37°C for 30 minutes, then cooled to 4°C) was added per well, then incubated at 4°C for 30-60 minutes. The plates were then washed 4 X with TBS-T (4°C) (250 ul/well)/wash). […]

The target in another assay is T2, human SH-PTP2 SH2 domain (Homo sapiens, UniProt Q06124).
T2 construct: SH2 domain of human SH-PTP2 (amino acids 1-106); made in house; host or cells: E. coli (pGEX-2T)
T2 sequence (Q06124 1-106): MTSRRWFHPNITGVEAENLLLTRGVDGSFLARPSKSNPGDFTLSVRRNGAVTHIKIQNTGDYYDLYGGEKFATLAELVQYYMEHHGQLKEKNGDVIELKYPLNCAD
As to the kind of experiment: SH2 domain / pY peptide binding assay (ELISA-based, 96 well plate), SH-PTP2 SH2. The conditions noted are these: for Ki: Ki calculated from IC50 by the expanded equation, Table II; for IC50: cloned human SH2 domain fusion protein, 0.1 uM biotinylated pY peptide, Table I. As to the method:
as §1, §2
Human SH-PTP2 SH2 domain: The sequence encoding the SH2 domain of human SH-PTP2 (amino acids 1-106))(Bastien, L. et al., Biochem. Biophys. Res. Commun. 196, 124-133 (1993)) was cloned into the BamHI and EcoRI sites of the expression vector pGEX-2T. The SH2 domain including the additional C-terminal amino acids glutamine-phenylalanine-isoleucine-valine-threonine-aspartate (SEQ ID NO: 12) was cloned by PCR techniques known to those skilled in the art to yield the expressed fusion protein GST-X-SH-PTP2.
as §3

Among the data in patent EP0727211A1, “Use of src SH2 specific compounds to treat a bone resorption disease” (SMITHKLINE BEECHAM CORPORATION, priority 1995, dated 1996) are Ki and IC50 values, retold here.

T1 sequence (P62993 58-159): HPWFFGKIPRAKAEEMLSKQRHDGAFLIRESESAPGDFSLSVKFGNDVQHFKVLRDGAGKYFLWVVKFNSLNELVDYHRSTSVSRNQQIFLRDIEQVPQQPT

Turning to “4-acetamido-benzamido-trans-4-methyl-cyclohexyl-N-1-(amino-R-2-(methoxy methyl)-pyrrolidine) carboxamide [Compound 8]”, at human Grb2 SH2 domain, the Ki is 330 µM and the IC50 was above 300 µM. In addition, on human SH-PTP2 SH2 domain, the Ki was above 1000 µM and the IC50 was above 300 µM.

For `Cc1nnc(SCC2=C(C(=O)O)N3C(=O)[C@@H](NC(=O)C(N)c4ccc(C(=O)O)cc4)[C@H]3SC2)s1` (stereo partly drawn) [Compound 1, 7-[D,L-α-Amino-α-(4-carboxyphenyl)acetamido]-3-[2-(5-methyl-1,3,4-thiadiazolyl)thiomethyl]Δ^3-cephem-4-carboxylic Acid], the Ki at human Grb2 SH2 domain and on human SH-PTP2 SH2 domain was above 1000 µM in each case. The concentration for half-maximal inhibition (IC50) at human Grb2 SH2 domain and on human SH-PTP2 SH2 domain was above 300 µM in each case.

Consider `N[C@@H](Cc1cc(Br)c(Oc2ccc(O)c(Cc3ccc(O)nn3)c2)c(Br)c1)C(=O)O` [Compound 2, L-3,5-Dibromo-3'-(6-oxo-3(1H)-pyridazinylmethyl)-thyronine], for which, at human Grb2 SH2 domain, the Ki was above 1000 µM and the IC50 is above 300 µM. Besides, on human SH-PTP2 SH2 domain, the Ki was above 1000 µM and the IC50 was above 300 µM.

As to `Cc1nc2sc3c(c2c2[nH][nH]c(=O)c12)CCC1(C3)OCCO1` [Compound 3, 8,8-Ethylenedioxy-2,3,7,8,9,10-hexahydro-4-methyl-1H-benzo[b]thieno[2,3-b]pyrazolo[3,4-d]pyridin-3-one], on human Grb2 SH2 domain, the Ki was above 1000 µM and the IC50 is above 300 µM. Moreover, on human SH-PTP2 SH2 domain, the inhibitory constant (Ki) is above 1000 µM and the IC50 is above 300 µM.

In the case of `Cc1ccc(C(=O)c2ccc(C(=O)c3ccc(CC=O)cc3)cc2)cc1` [Compound 4, 4-[4-(4-Methylbenzoyl)benzoyl]phenylacetaldehyde], at human Grb2 SH2 domain, the Ki is above 1000 µM and the IC50 is above 300 µM.

For `Cc1nc2sc3c(c2c2c1c(=O)[nH]n2C)CCC1(C3)OCCO1` [Compound 5, 1,4-Dimethyl-8,8-ethylenedioxy-2,3,7,8,9,10-hexahydro-1H-benzo[b]thieno[2,3-b]pyrazolo[3,4-d]pyridin-3-one], at human Grb2 SH2 domain, the inhibitory constant (Ki) is above 1000 µM and the IC50 is above 300 µM. At human SH-PTP2 SH2 domain, the Ki is above 1000 µM and the IC50 was above 300 µM.

Regarding `CCCCCCNC(=O)[C@H]1CC[C@H](CNC(=O)c2ccc([N+](=O)[O-])cc2)CC1` [Compound 7, 4-nitro-benzamido-trans-4-methyl-cyclohexyl-N-hexyl carboxamide], the inhibition constant (Ki) at human Grb2 SH2 domain and at human SH-PTP2 SH2 domain was above 1000 µM throughout. The IC50 on human Grb2 SH2 domain and at human SH-PTP2 SH2 domain was above 300 µM throughout.

Consider `CCCNC(=O)[C@H]1CC[C@H](CNC(=O)/C=C/c2ccc(C=O)cc2)CC1` [Compound 9, 4-formyl-E-cinnamido-trans-4-methyl-cyclohexyl-N-(propyl) carboxamide], for which, at human Grb2 SH2 domain, the Ki was above 1000 µM and the IC50 is above 300 µM. Also, at human SH-PTP2 SH2 domain, the Ki was above 1000 µM and the IC50 was above 300 µM.

`Cc1nc2sc3c(c2c2[nH][nH]c(=O)c12)CCCC3` [Compound 10, 2,3,7,8,9,10-Hexahydro-4-methyl-1H-benzo[b]thieno[2,3-b]pyrazolo[3,4-d]pyridin-3-one]: the Ki on human Grb2 SH2 domain and at human SH-PTP2 SH2 domain was above 1000 µM throughout. Moreover, the IC50 on human Grb2 SH2 domain and on human SH-PTP2 SH2 domain was above 300 µM throughout.

As a reminder, the Ki is a measure of affinity in units of concentration, obtained from inhibition or displacement. The IC50 is the concentration that gives 50% inhibition. Low values mean greater potency in that assay, high ones weaker potency in that assay.
